In US20070190628A1, “Yeast food composition for fuel ethanol production” (priority 2006, published 2007):

Experiments:
active dry yeast “z” [1] = assay: Scaled batch fermentation (4 L) of normal gravity corn mash: fermentation time and ethanol production; format: cell-based, Saccharomyces cerevisiae; settings: 4 L batch
Protocol: The fermentation rate in each nutrient-amended corn mash was determined by following the disappearance of dissolved solids by analysis of each sample collected for determination of yeast biomass production, with a digital density meter analyzer (model DMA-45, Anton Paar KG, Graz, Austria) maintained at 20° C. The amounts of ethanol produced during fermentation of each nutrient-amended corn mash were determined by measuring the amount of NADH+H^+ produced after ethanol was converted to acetaldehyde by alcohol dehydrogenase (ADH; Sigma Chemical Co.). An aliquot of each sample was collected for determination of yeast biomass production and diluted to 1:500. […] The absorbance of each tube was then measured at 340 nm after 15 min of incubation using water as the blank. To determine the amount of ethanol produced, a standard curve (ethanol concentration versus absorbance) was prepared using a standard 10% (w/v) ethanol preparation diluted to 1:500 and then diluted further to produce range of ethanol concentrations from 0 to 20 μg in the assay above. The linear equation (y=mx+b) obtained from the plot was used to calculate the amount of ethanol in the test solutions, where y was the absorbance and x was the amount (μg) of ethanol. […] Fermentation rates and ethanol production were determined by repeated sampling and sample processing at specific time intervals as described in Example 1.

active dry yeast “z” [2] = assay: Fermentation of very high gravity corn mash with nutrient supplements (Example 4); format: cell-based, Saccharomyces cerevisiae
Protocol: The effects of the optimized defined urea plus salts-based nutrient supplement, i.e., defined yeast food, developed in Example 3 for corn mash fermentations, were assessed by comparisons of fermentation rates and ethanol production in normal gravity corn mashes and very high gravity corn mashes that were (a) supplemented with 16 mM urea only, or (b) yeast extract, or (c) supplemented with 16 mM urea plus the defined yeast food from Example 3 which in this set of studies, contained 1.6 g/L (NH4)2HPO4, 0.32 g/L (NH4)2SO4, 0.049 g/L MgSO4.7H2O, and 0.273 mg/L ZnSO4.7H2O.
Normal density corn mashes were prepared as described in Example 1 and were determined to contain about 18-20 g dissolved solids per 100 mL mash as determined by density meter analysis. […] The mash thus prepared contained 30-32 g of dissolved solids/100 mL as determined by density meter analysis. […]
Each study was commenced by removing fermentors containing either normal gravity corn mash or very high gravity corn mash from 4° C. storage, connecting them to 30° C. water bath circulators and continually mixing the corn mash contents therein until the temperature of each mash was 30° C. […] Fermentation performance in all treatments was assessed by repeated sampling and analyses of the mashes during the fermentation periods as described in Example 1.

Structure (SMILES): NC(N)=O [urea]
- maximum ethanol production (active dry yeast “z” [1]): 11 % v/v
- time within which fermentation was completed (active dry yeast “z” [1]): ≤ 48 h
- time after which fermentation became “stuck” (active dry yeast “z” [2]): 72 h
